In general, IC50 refers to the midpoint of a concentration-inhibition curve.

Structures are written as SMILES.

The values that follow come from ChEMBL document CHEMBL1137830, “Synthesis and evaluation of tacrine-E2020 hybrids as acetylcholinesterase inhibitors for the treatment of Alzheimer's disease” (Bioorg Med Chem Lett, 2004).

One experiment concerns the target T1, Acetylcholinesterase (Rattus norvegicus, UniProt P37136).
T1 sequence (P37136 whole entry): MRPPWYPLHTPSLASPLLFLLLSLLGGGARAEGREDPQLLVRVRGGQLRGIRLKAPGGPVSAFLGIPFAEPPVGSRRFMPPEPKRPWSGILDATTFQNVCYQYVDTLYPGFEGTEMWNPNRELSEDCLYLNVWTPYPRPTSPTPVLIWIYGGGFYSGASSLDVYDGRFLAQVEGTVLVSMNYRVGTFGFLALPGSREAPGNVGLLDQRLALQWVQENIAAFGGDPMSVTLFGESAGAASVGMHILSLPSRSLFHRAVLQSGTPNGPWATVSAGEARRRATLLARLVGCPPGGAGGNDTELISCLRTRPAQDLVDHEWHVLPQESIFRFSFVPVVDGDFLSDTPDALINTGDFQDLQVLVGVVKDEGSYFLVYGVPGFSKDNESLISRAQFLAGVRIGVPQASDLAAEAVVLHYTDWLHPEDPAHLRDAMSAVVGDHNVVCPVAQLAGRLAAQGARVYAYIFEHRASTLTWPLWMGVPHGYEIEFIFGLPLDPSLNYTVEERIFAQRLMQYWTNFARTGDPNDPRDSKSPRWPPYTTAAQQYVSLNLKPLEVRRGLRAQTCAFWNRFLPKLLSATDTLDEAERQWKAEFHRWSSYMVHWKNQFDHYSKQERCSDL

In a further experiment the target is Butyrylcholinesterase (Rattus norvegicus, UniProt Q9JKC1).
Butyrylcholinesterase, sequence (Q9JKC1 whole entry): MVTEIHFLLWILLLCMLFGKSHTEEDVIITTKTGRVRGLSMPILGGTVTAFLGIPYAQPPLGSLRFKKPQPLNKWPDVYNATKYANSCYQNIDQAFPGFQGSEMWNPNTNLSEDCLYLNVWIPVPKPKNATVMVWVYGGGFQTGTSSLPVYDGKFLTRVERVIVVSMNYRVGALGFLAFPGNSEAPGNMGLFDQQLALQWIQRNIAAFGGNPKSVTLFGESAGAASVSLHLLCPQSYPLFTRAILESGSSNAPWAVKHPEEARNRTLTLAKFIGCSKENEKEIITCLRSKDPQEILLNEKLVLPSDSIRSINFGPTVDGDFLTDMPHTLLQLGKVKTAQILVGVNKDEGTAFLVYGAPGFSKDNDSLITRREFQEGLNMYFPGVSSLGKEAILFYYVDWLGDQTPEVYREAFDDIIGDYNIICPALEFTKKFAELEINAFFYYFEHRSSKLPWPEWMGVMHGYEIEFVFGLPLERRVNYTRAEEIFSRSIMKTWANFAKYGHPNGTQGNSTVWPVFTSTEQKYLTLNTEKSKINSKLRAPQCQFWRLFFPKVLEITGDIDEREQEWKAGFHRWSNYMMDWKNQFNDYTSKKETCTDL

Description for Acetylcholinesterase: Inhibitory concentration against rat cortex Acetylcholinesterase
Description for Butyrylcholinesterase: Inhibitory concentration against rat serum Butyrylcholinesterase

Consider `COc1ccc(C(=O)NCC(=O)NCCC2CCN(Cc3ccccc3)CC2)cc1OC`, for which the figures for the IC50 against Acetylcholinesterase and on Butyrylcholinesterase were 662 nM and 19200 nM, respectively. At Butyrylcholinesterase, `O=C(CNc1c2c(nc3ccccc13)CCCC2)NCC1CCN(c2ccccc2)CC1` returned an IC50 of 12.4 nM.

With `O=C(CNC1c2ccccc2-c2[nH]c3ccccc3c21)NCCC1CCN(Cc2ccccc2)CC1` (stereo not drawn), the IC50 at Butyrylcholinesterase is 17800 nM. Regarding `O=C(CNC1CCc2ccccc21)NCCC1CCN(Cc2ccccc2)CC1` (stereo not drawn), the IC50 against Acetylcholinesterase was 230 nM; on Butyrylcholinesterase, 6920 nM. `O=C(CNc1c2c(nc3ccccc13)CCCC2)NCCC1CCN(c2ccccc2)CC1`: the IC50 stood at 6 nM at Acetylcholinesterase and 76 nM against Butyrylcholinesterase.
